According to US7981903B2, “2-[2-{phenylamino}-1H-pyrrolo[2,3-D]pyrimidin-4-yl)amino] benzamide derivatives as IGF-1R inhibitors for the treatment of cancer” (GlaxoSmithKline LLC, priority 2007, dated 2011):

Legend:
human IGF1R (hIGF1R) = biological target: T1, human IGF1R (hIGF1R) (Homo sapiens, UniProt P08069); assay: TR-FRET kinase assay of purified hIGF1R; type: biochemical; conditions: activated hIGF1R 0.5 nM, 10 μM ATP, values given as pIC50 category, read-out: IGF-1R pIC50 (converted)
T1 construct: containing amino acid residues 957-1367 of human IGF1R; made in house; host or cells: Sf9 cells (baculovirus)
T1 sequence (P08069 957-1367): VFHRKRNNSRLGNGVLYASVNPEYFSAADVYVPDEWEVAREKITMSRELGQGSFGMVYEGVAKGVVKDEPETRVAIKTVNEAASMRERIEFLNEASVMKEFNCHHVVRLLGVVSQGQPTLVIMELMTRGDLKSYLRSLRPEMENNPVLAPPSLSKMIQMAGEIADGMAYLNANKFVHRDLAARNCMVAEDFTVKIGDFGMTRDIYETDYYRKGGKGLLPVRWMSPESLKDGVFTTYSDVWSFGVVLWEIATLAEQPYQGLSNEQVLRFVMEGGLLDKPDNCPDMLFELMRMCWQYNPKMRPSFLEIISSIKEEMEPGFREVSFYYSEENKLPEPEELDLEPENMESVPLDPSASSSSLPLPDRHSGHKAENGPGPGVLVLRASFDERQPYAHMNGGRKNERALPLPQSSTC

human IR (hIR) = biological target: T2, human IR (hIR) (Homo sapiens, UniProt P06213); assay: TR-FRET kinase assay of purified hIR; type: biochemical; conditions: activated hIR 0.5 nM, 10 μM ATP, values given as pIC50 category
T2 construct: containing amino acid residues 979-1382 of human IR; made in house; host or cells: Sf9 cells (baculovirus), same process as hIGF1R
T2 sequence (P06213 979-1382): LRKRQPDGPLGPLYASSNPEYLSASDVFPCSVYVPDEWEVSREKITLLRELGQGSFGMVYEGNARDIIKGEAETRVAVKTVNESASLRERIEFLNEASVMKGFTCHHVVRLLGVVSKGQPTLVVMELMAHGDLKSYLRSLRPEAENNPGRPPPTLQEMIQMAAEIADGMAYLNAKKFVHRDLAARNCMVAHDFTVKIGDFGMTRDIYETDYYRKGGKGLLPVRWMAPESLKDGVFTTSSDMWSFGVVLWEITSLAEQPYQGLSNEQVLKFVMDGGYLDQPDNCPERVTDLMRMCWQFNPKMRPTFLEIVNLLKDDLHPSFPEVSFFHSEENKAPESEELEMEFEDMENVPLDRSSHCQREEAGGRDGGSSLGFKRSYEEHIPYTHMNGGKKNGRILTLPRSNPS

NCI-H929 = assay: Inhibition of cell proliferation (CellTiter-Glo or InCell analyzer), NCI-H929; type: cell-based; conditions: Homo sapiens, 72 h / 3 days, values given as IC50 category
How it was run: In one

Colo205 = assay: Inhibition of cell proliferation (CellTiter-Glo or InCell analyzer), Colo205; type: cell-based; conditions: Homo sapiens, COLO 205, 72 h / 3 days, values given as IC50 category
How it was run: In one

Structure (SMILES)	IC50 (human IGF1R (hIGF1R)) [nM]	IC50 (human IR (hIR)) [nM]	IC50 (NCI-H929) [nM]	IC50 (Colo205) [nM]
COc1cc2c(cc1Nc1nc(Nc3cccc(F)c3C(N)=O)c3cc[nH]c3n1)N(C(=O)CN1CCCCC1)CCC2 [Example 218, 2-fluoro-6-[(2-{[6-(methyloxy)-1-(1-piperidinylacetyl)-1,2,3,4-tetrahydro-7-quinolinyl]amino}-1H-pyrrolo[2,3-d]pyrimidin-4-yl)amino]benzamide]	0.251 to 1	0.251 to 1	< 250	< 250
COc1cc2c(cc1Nc1nc(Nc3cc(F)cc(F)c3C(N)=O)c3cc[nH]c3n1)N(C(=O)CN1CCCC1)CCC2 [Example 219, 2,4-difluoro-6-[(2-{[6-(methyloxy)-1-(1-pyrrolidinylacetyl)-1,2,3,4-tetrahydro-7-quinolinyl]amino}-1H-pyrrolo[2,3-d]pyrimidin-4-yl)amino]benzamide]	0.251 to 1	0.251 to 1	< 250	< 250
CNC(=O)c1c(F)cc(F)cc1Nc1nc(Nc2cc3c(cc2OC)CCCN3C(=O)CN2CCCC2)nc2[nH]ccc12 [Example 221, 2,4-difluoro-N-methyl-6-[(2-{[6-(methyloxy)-1-(1-pyrrolidinylacetyl)-1,2,3,4-tetrahydro-7-quinolinyl]amino}-1H-pyrrolo[2,3-d]pyrimidin-4-yl)amino]benzamide]	0.251 to 1	0.251 to 1	< 250	250 to 1000
COc1cc2c(cc1Nc1nc(Nc3cccc(F)c3C(N)=O)c3cc[nH]c3n1)CN(C(=O)CCN(C)C)CC2 [Example 230, 2-[(2-{[2-(N,N-dimethyl-β-alanyl)-6-(methyloxy)-1,2,3,4-tetrahydro-7-isoquinolinyl]amino}-1H-pyrrolo[2,3-d]pyrimidin-4-yl)amino]-6-fluorobenzamide]	5.01 to 200	5.01 to 158	250 to 1000	> 1000
COc1cc2c(cc1Nc1nc(Nc3cccc(F)c3C(N)=O)c3cc[nH]c3n1)CN(CCCN(C)C)CC2 [Example 232, 2-[(2-{[2-[3-(dimethylamino)propyl]-6-(methyloxy)-1,2,3,4-tetrahydro-7-isoquinolinyl]amino}-1H-pyrrolo[2,3-d]pyrimidin-4-yl)amino]-6-fluorobenzamide]	5.01 to 200	1.26 to 3.98	< 250	> 1000
CNC(=O)c1c(F)cccc1Nc1nc(Nc2cc3c(cc2OC)CCN(C(C)C)C3)nc2[nH]ccc12 [Example 235, 2-fluoro-N-methyl-6-[(2-{[2-(1-methylethyl)-6-(methyloxy)-1,2,3,4-tetrahydro-7-isoquinolinyl]amino}-1H-pyrrolo[2,3-d]pyrimidin-4-yl)amino]benzamide]	5.01 to 200	1.26 to 3.98	< 250	> 1000
CNC(=O)c1c(F)cccc1Nc1nc(Nc2cc(N(C)C(=O)CN(C)C)ccc2OC)nc2[nH]ccc12 [Example 242, 2-[(2-{[5-[(N,N-dimethylglycyl)(methyl)amino]-2-(methyloxy)phenyl]amino}-1H-pyrrolo[2,3-d]pyrimidin-4-yl)amino]-6-fluoro-N-methylbenzamide]	5.01 to 200	5.01 to 158	> 1000	> 1000
COc1ccc(NC(=O)CN(C)C)cc1Nc1nc(Nc2cccc(F)c2C(N)=O)c2cc[nH]c2n1 [Example 244, 2-[(2-{[5-[(N,N-dimethylglycyl)amino]-2-(methyloxy)phenyl]amino}-1H-pyrrolo[2,3-d]pyrimidin-4-yl)amino]-6-fluorobenzamide]	0.251 to 1	0.251 to 1	< 250	< 250

More lines, now with the values ahead:

IC50 (human IGF1R (hIGF1R)) [nM]	IC50 (human IR (hIR)) [nM]	IC50 (NCI-H929) [nM]	IC50 (Colo205) [nM]	Structure (SMILES)
5.01 to 200	5.01 to 158	250 to 1000	> 1000	COc1cc2c(cc1Nc1nc(Nc3cccc(F)c3C(N)=O)c3cc[nH]c3n1)CN(C(=O)CCN1CCN(C(C)C)CC1)CC2 [Example 229, 2-fluoro-6-[(2-{[2-{3-[4-(1-methylethyl)-1-piperazinyl]propanoyl}-6-(methyloxy)-1,2,3,4-tetrahydro-7-isoquinolinyl]amino}-1H-pyrrolo[2,3-d]pyrimidin-4-yl)amino]benzamide]
5.01 to 200	5.01 to 158	250 to 1000	> 1000	COc1cc2c(cc1Nc1nc(Nc3cccc(F)c3C(N)=O)c3cc[nH]c3n1)CN(C(=O)CCN1CCOCC1)CC2 [Example 231, 2-fluoro-6-{[2-({6-(methyloxy)-2-[3-(4-morpholinyl)propanoyl]-1,2,3,4-tetrahydro-7-isoquinolinyl}amino)-1H-pyrrolo[2,3-d]pyrimidin-4-yl]amino}benzamide]
5.01 to 200	1.26 to 3.98	250 to 1000	> 1000	CCC(C)N1CCc2cc(OC)c(Nc3nc(Nc4cccc(F)c4C(=O)NC)c4cc[nH]c4n3)cc2C1 (stereo not shown) [Example 238, 2-fluoro-N-methyl-6-[(2-{[6-(methyloxy)-2-(1-methylpropyl)-1,2,3,4-tetrahydro-7-isoquinolinyl]amino}-1H-pyrrolo[2,3-d]pyrimidin-4-yl)amino]benzamide]
0.251 to 1	0.251 to 1	250 to 1000	250 to 1000	CNC(=O)c1c(F)cccc1Nc1nc(Nc2cc3c(cc2OC)CCN3C(=O)CN(C)C)nc2[nH]cc(C)c12 [Example 258, 2-[(2-{[1-(N,N-dimethylglycyl)-5-(methyloxy)-2,3-dihydro-1H-indol-6-yl]amino}-5-methyl-1H-pyrrolo[2,3-d]pyrimidin-4-yl)amino]-6-fluoro-N-methylbenzamide]
5.01 to 200	5.01 to 158	> 1000	> 1000	COc1cc2c(cc1Nc1nc(Nc3cccc(F)c3C(N)=O)c3cc(C)[nH]c3n1)N(C(=O)CN(C)C)CC2 [Example 262, 2-[(2-{[1-(N,N-dimethylglycyl)-5-(methyloxy)-2,3-dihydro-1H-indol-6-yl]amino}-6-methyl-1H-pyrrolo[2,3-d]pyrimidin-4-yl)amino]-6-fluorobenzamide]
